Results: US9034921B2, “Diphenylmethane derivatives as SGLT2 inhibitors” (GREEN CROSS CORPORATION, priority 2011, dated 2015)

target: human SGLT2 (Homo sapiens (Human), UniProt P31639); assay: Inhibitory effects on human SGLT2 activities (14C-AMG uptake, sodium-dependent glucose transport assay); format: cell-based; conditions: CHO cells stably expressing hSGLT2, 37° C., 2 h, single determinations
Excerpt: Test 1: Cloning and Cell Line Construction for Human SGLT2
Human SGLT2 (hSGLT2) gene was amplified by PCR from cDNA-Human Adult Normal Tissue Kidney (Invitrogen). The hSGLT2 sequence was cloned into pcDNA3.1(+) for mammalian expression and stably transfected into chinese hamster ovary (CHO) cells. SGLT2-expressing clones were selected based on resistance to G418 antibiotic (Geneticin) and activity in the ^14C-α-methyl-D-glucopyranoside (^14C-AMG) uptake assay.
Test 2: Inhibitory Effects on Human SGLT2 Activities
For sodium-dependent glucose transport assay, cells expressing hSGLT2 were seeded into a 96-well culture plate at a density of 5×10^4 cells/well in RPMI medium 1640 containing 10% fetal bovine serum. The cells were used 1 day after plating. They were incubated in pretreatment buffer (10 mM HEPES, 5 mM Tris, 140 mM choline chloride, 2 mM KCl, 1 mM CaCl2, and 1 mM MgCl2, pH 7.4) at 37° C. for 10 min. They were then incubated in uptake buffer (10 mM HEPES, 5 mM Tris, 140 mM NaCl, 2 mM KCl, 1 mM CaCl2, 1 mM MgCl2, and 1 mM ^14C-nonlabeled AMG pH 7.4) containing ^14C-labeled AMG (8 μM) and the inventive compound or dimethyl sulfoxide (DMSO) vehicle at 37° C. for 2 h. Cells were washed twice with washing buffer (pretreatment buffer containing 10 mM AMG at room temperature) and then the radioactivity was measured using a liquid scintillation counter. IC50 was determined by nonlinear regression analysis using GraphPad PRISM [Katsuno, K. et al. J. Pharmacol. Exp. Ther. 2007, 320, 323-330; Han, S. et al. Diabetes, 2008, 57, 1723-1729].

Chain of human SGLT2 (P31639 whole entry): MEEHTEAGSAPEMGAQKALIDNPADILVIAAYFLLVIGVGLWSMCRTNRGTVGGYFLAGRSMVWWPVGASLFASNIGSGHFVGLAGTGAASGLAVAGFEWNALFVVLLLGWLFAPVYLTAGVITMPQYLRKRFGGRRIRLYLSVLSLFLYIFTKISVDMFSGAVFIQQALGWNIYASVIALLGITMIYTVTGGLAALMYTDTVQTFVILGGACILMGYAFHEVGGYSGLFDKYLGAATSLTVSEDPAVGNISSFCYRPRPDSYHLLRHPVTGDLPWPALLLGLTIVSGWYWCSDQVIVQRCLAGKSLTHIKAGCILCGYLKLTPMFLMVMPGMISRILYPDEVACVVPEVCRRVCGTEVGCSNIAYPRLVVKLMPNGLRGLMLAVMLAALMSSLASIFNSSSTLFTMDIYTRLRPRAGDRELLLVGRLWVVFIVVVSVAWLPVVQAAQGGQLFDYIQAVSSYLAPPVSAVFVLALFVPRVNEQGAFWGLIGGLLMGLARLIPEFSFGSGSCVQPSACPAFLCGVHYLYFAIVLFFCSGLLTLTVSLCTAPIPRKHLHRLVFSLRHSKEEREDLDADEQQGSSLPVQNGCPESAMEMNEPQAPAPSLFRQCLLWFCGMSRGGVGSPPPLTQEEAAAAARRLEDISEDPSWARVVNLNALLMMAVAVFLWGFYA

Structure (SMILES) | IC50 [nM]
OC[C@H]1O[C@@H](c2ccc(Cl)c(Cc3ccc4nccnc4c3)c2)[C@H](O)[C@@H](O)[C@@H]1O [Example E026, (2S,3R,4R,5S,6R)-2-(4-Chloro-3-(quinoxalin-6-ylmethyl)phenyl)-6-(hydroxymethyl)tetrahydro-2H-pyran-3,4,5-triol] | 8.63
OC[C@H]1O[C@@H](c2ccc(Cl)c(Cc3ccc4c(c3)OCCCO4)c2)[C@H](O)[C@@H](O)[C@@H]1O [Example E029, (2S,3R,4R,5S,6R)-2-(4-Chloro-3-((3,4-dihydro-2H-benzo[b][1,4]dioxepin-7-yl)methyl)phenyl)-6-(hydroxymethyl)tetrahydro-2H-pyran-3,4,5-triol] | 4.38
Cc1ccc([C@@H]2O[C@H](CO)[C@@H](O)[C@H](O)[C@H]2O)cc1Cc1ccc2c(c1)OCCCO2 [Example E030, (2S,3R,4R,5S,6R)-2-(3-((3,4-Dihydro-2H-benzo[b][1,4]dioxepin-7-yl)methyl)-4-methylphenyl)-6-(hydroxymethyl)tetrahydro-2H-pyran-3,4,5-triol] | 9.62
OC[C@H]1O[C@@H](c2ccc(Cl)c(Cc3ccc4sccc4c3)c2)[C@H](O)[C@@H](O)[C@@H]1O [Example E031, (2S,3R,4R,5S,6R)-2-(3-(Benzo[b]thiophen-5-ylmethyl)-4-chlorophenyl)-6-(hydroxymethyl)tetrahydro-2H-pyran-3,4,5-triol] | 0.865
OC[C@H]1O[C@@H](c2ccc(Cl)c(Cc3ccc4c(c3)CCS4)c2)[C@H](O)[C@@H](O)[C@@H]1O [Example E032, (2S,3R,4R,5S,6R)-2-(4-Chloro-3-((2,3-dihydrobenzo[b]thiophen-5-yl)methyl)phenyl)-6-(hydroxymethyl)tetrahydro-2H-pyran-3,4,5-triol] | 2.16
OC[C@H]1O[C@@H](c2ccc(Cl)c(Cc3ccc4c(cnn4Cc4ccccc4)c3)c2)[C@H](O)[C@@H](O)[C@@H]1O [Example E033, (2S,3R,4R,5S,6R)-2-(3-((1-Benzyl-1H-indazol-5-yl)methyl)-4-chlorophenyl)-6-(hydroxymethyl)tetrahydro-2H-pyran-3,4,5-triol] | 2.39
Cn1ccc2cc(Cc3cc([C@@H]4O[C@H](CO)[C@@H](O)[C@H](O)[C@H]4O)ccc3Cl)ccc21 [Example E034, (2S,3R,4R,5S,6R)-2-(4-Chloro-3-((1-methyl-1H-indol-5-yl)methyl)phenyl)-6-(hydroxymethyl)tetrahydro-2H-pyran-3,4,5-triol] | 2.98
Cn1ncc2cc(Cc3cc([C@@H]4O[C@H](CO)[C@@H](O)[C@H](O)[C@H]4O)ccc3Cl)ccc21 [Example E035, (2S,3R,4R,5S,6R)-2-(4-Chloro-3-((1-methyl-1H-indazol-5-yl)methyl)phenyl)-6-(hydroxymethyl)tetrahydro-2H-pyran-3,4,5-triol] | 1.72
Cn1cc2cc(Cc3cc([C@@H]4O[C@H](CO)[C@@H](O)[C@H](O)[C@H]4O)ccc3Cl)ccc2n1 [Example E036, (2S,3R,4R,5S,6R)-2-(4-Chloro-3-((2-methyl-2H-indazol-5-yl)methyl)phenyl)-6-(hydroxymethyl)tetrahydro-2H-pyran-3,4,5-triol] | 2.31
CCn1ncc2cc(Cc3cc([C@@H]4O[C@H](CO)[C@@H](O)[C@H](O)[C@H]4O)ccc3Cl)ccc21 [Example E037, (2S,3R,4R,5S,6R)-2-(4-Chloro-3-((1-ethyl-1H-indazol-5-yl)methyl)phenyl)-6-(hydroxymethyl)tetrahydro-2H-pyran-3,4,5-triol] | 1.58
CCn1cc2cc(Cc3cc([C@@H]4O[C@H](CO)[C@@H](O)[C@H](O)[C@H]4O)ccc3Cl)ccc2n1 [Example E038, (2S,3R,4R,5S,6R)-2-(4-Chloro-3-((2-ethyl-2H-indazol-5-yl)methyl)phenyl)-6-(hydroxymethyl)tetrahydro-2H-pyran-3,4,5-triol] | 1.76
CC(C)n1ncc2cc(Cc3cc([C@@H]4O[C@H](CO)[C@@H](O)[C@H](O)[C@H]4O)ccc3Cl)ccc21 [Example E039, (2S,3R,4R,5S,6R)-2-(4-Chloro-3-((1-isopropyl-1H-indazol-5-yl)methyl)phenyl)-6-(hydroxymethyl)tetrahydro-2H-pyran-3,4,5-triol] | 1.76
CC(C)n1cc2cc(Cc3cc([C@@H]4O[C@H](CO)[C@@H](O)[C@H](O)[C@H]4O)ccc3Cl)ccc2n1 [Example E040, (2S,3R,4R,5S,6R)-2-(4-Chloro-3-((2-isopropyl-2H-indazol-5-yl)methyl)phenyl)-6-(hydroxymethyl)tetrahydro-2H-pyran-3,4,5-triol] | 4.44
COc1cc([C@@H]2O[C@H](CO)[C@@H](O)[C@H](O)[C@H]2O)cc(Cc2ccc3c(c2)OCCO3)c1Cl [Example E043, (2S,3R,4R,5S,6R)-2-(4-Chloro-3-((2,3-dihydrobenzo[b][1,4]dioxin-6-yl)methyl)-5-methoxyphenyl)-6-(hydroxymethyl)tetrahydro-2H-pyran-3,4,5-triol] | 2.68
OC[C@H]1O[C@@H](c2cc(Cc3ccc4c(c3)OCCO4)c(Cl)c3c2OCCC3)[C@H](O)[C@@H](O)[C@@H]1O [Example E044, (2S,3R,4R,5S,6R)-2-(5-Chloro-6-((2,3-dihydrobenzo[b][1,4]dioxin-6-yl)methyl)chroman-8-yl)-6-(hydroxymethyl)tetrahydro-2H-pyran-3,4,5-triol] | 1.65
OC[C@H]1O[C@@H](c2cc(Cc3ccc4c(c3)OCCO4)c(Cl)c3c2CCO3)[C@H](O)[C@@H](O)[C@@H]1O [Example E045, (2S,3R,4R,5S,6R)-2-(7-Chloro-6-((2,3-dihydrobenzo[b][1,4]dioxin-6-yl)methyl)-2,3-dihydrobenzofuran-4-yl)-6-(hydroxymethyl)tetrahydro-2H-pyran-3,4,5-triol] | 1.37
CCOc1ccc(Cc2cc([C@@H]3O[C@H](CO)[C@@H](O)[C@H](O)[C@H]3O)c3sccc3c2Cl)cc1 [Example E046, (2S,3R,4R,5S,6R)-2-(4-Chloro-5-(4-ethoxybenzyl)benzo[b]thiophen-7-yl)-6-(hydroxymethyl)tetrahydro-2H-pyran-3,4,5-triol] | 275
OC[C@H]1S[C@@H](c2ccc(Cl)c(Cc3ccc4c(c3)OCCO4)c2)[C@H](O)[C@@H](O)[C@@H]1O [Example E047, (2S,3R,4R,5S,6R)-2-(4-Chloro-3-((2,3-dihydrobenzo[b][1,4]dioxin-6-yl)methyl)phenyl)-6-(hydroxymethyl)tetrahydro-2H-thiopyran-3,4,5-triol] | 4.17
COc1cc(Cl)c(Cc2ccc3c(c2)OCCO3)cc1[C@@H]1S[C@H](CO)[C@@H](O)[C@H](O)[C@H]1O [Example E048, (2S,3R,4R,5S,6R)-2-(4-Chloro-5-((2,3-dihydrobenzo[b][1,4]dioxin-6-yl)methyl)-2-methoxyphenyl)-6-(hydroxymethyl)tetrahydro-2H-thiopyran-3,4,5-triol] | 2.62
OC[C@H]1O[C@@H](c2ccc(Cl)c(Cc3ccc4c(c3)OCCO4)c2)[C@H](O)[C@@H](O)[C@@H]1O [Example E049, (2S,3R,4R,5S,6R)-2-(4-Chloro-3-((2,3-dihydrobenzo[b][1,4]dioxin-6-yl)methyl)phenyl)-6-(hydroxymethyl)-tetrahydro-2H-pyran-3,4,5-triol] | 1.23
OC[C@H]1O[C@@H](c2cc(Cc3ccc4c(c3)OCCO4)c(Cl)cc2O)[C@H](O)[C@@H](O)[C@@H]1O [Example E052, (2S,3R,4R,5S,6R)-2-(4-Chloro-5-((2,3-dihydrobenzo[b][1,4]dioxin-6-yl)methyl)-2-hydroxyphenyl)-6-(hydroxymethyl)-tetrahydro-2H-pyran-3,4,5-triol] | 1.64
Cc1ccc([C@@H]2O[C@H](CO)[C@@H](O)[C@H](O)[C@H]2O)cc1Cc1ccc2c(c1)OCCO2 [Example E054, (2S,3R,4R,5S,6R)-2-(3-((2,3-Dihydrobenzo[b][1,4]dioxin-6-yl)methyl)-4-methylphenyl)-6-(hydroxymethyl)-tetrahydro-2H-pyran-3,4,5-triol] | 2.02
OC[C@H]1O[C@@H](c2ccc(Cl)c(Cc3ccc4c(c3)OCO4)c2)[C@H](O)[C@@H](O)[C@@H]1O [Example E056, (2S,3R,4R,5S,6R)-2-(3-(Benzo[d][1,3]dioxol-5-ylmethyl)-4-chlorophenyl)-6-(hydroxymethyl)-tetrahydro-2H-pyran-3,4,5-triol] | 2.58
OC[C@H]1O[C@@H](c2ccc(Cl)c(Cc3ccc4c(c3)CCC4)c2)[C@H](O)[C@@H](O)[C@@H]1O [Example E057, (2S,3R,4R,5S,6R)-2-(4-Chloro-3-((2,3-dihydro-1H-inden-5-yl)methyl)phenyl)-6-(hydroxymethyl)-tetrahydro-2H-pyran-3,4,5-triol] | 2.15
OC[C@H]1O[C@@H](c2ccc(Cl)c(Cc3ccc4c(c3)CCCC4)c2)[C@H](O)[C@@H](O)[C@@H]1O [Example E060, (2S,3R,4R,5S,6R)-2-(4-Chloro-3-((5,6,7,8-tetrahydronaphthalen-2-yl)methyl)phenyl)-6-(hydroxymethyl)-tetrahydro-2H-pyran-3,4,5-triol] | 2.99
